Reference: patent US20260234144A1 (TAY THERAPEUTICS LIMITED, priority 2023, published 2026)

Tested on: R223X stop codon in the mutated luciferase gene, ADXC8 luciferase reporter cell line
Test: cells
Assay type: cell-based
Details: ADXC8 cells, 24 hours; for EC (100% of 200 uM G418 response) / Emax: 24 h; for EC (100% of 200 uM G418 response): read-out: pC100%, negative logarithm of the concentration giving the same response as 200 μM G418; for Emax: read-out: Fold Over Control, maximum fold response relative to 200 μM G418

CNc1cc(N[C@H]2CNC[C@@H]2O)nc2nc3c(c(C)c12)CCC3 [Example 635] showed an EC (100% of 200 uM G418 response) of 1 to 10 µM.

With Cc1cc(C)c2c(NCC(N)=O)nc(NC3CCN(C)CC3)nc2n1 [Example 314] the Emax was 0 to 100% and the EC (100% of 200 uM G418 response) was over 31.6 µM.

With [2H]C([2H])(c1ccc(C#N)cc1)N1CCC(Nc2nc(N)c3c(C)cc(C)nc3n2)CC1 [Example 507, 4-((4-((4-amino-5,7-dimethylpyrido[2,3-d]pyrimidin-2-yl)amino)piperidin-1-yl)methyl-d2)benzonitrile] the Emax was 100 to 3000% and the EC (100% of 200 uM G418 response) was 0.1 to 1 µM.

For CN1CCC(Nc2nc(N)c3ccc(-c4cccc(C(=O)N(C)C)c4)nc3n2)CC1 [Example 86], the Emax was 0 to 100% and the EC (100% of 200 uM G418 response) was over 100 µM.

Compound CNS(=O)(=O)c1ccc(CN2CCC(Nc3nc(N)c4c(C)c5c(nc4n3)CCC5)CC2)cc1 [Example 666] has an Emax of 100 to 3000% and an EC (100% of 200 uM G418 response) of 1 to 10 µM.

With CCNc1nc(N[C@H]2CNC[C@@H]2F)nc2nc(C)cc(C)c12 [Example 394] the EC (100% of 200 uM G418 response) was 1 to 10 µM.

COc1ccnc2nc(NC3CCN(C)CC3)nc(N)c12 [Example 281] gave an Emax of 100 to 3000% and an EC (100% of 200 uM G418 response) of 10 to 100 µM.

CNC(=O)CCNc1nc(NC2CCN(C)CC2)nc2nc(C)cc(C)c12 [Example 353] gave an Emax of 0 to 100% and an EC (100% of 200 uM G418 response) of over 31.6 µM.

With CNc1nc(N[C@@H]2CCN(C)C2)nc2nc(C)c3c(c12)CCC3 [Example 337] the EC (100% of 200 uM G418 response) was 0.1 to 1 µM.

Compound Cc1nc2nc(NC3CCN(Cc4ccc(C#N)c(F)c4)CC3)nc(N)c2c2c1CCC2 [Example 528] has an Emax of 100 to 3000% and an EC (100% of 200 uM G418 response) of 0.1 to 1 µM.

Cc1cc(C)c2c(NCCn3ccnc3)nc(NC3CCN(C)CC3)nc2n1 [Example 316] gave an Emax of 0 to 100% and an EC (100% of 200 uM G418 response) of over 31.6 µM.

Compound CNC(=O)c1cccc(CN2CCC(Nc3nc(N)c4c(C)cc(C)nc4n3)CC2)c1 [Example 477] has an Emax of 100 to 3000% and an EC (100% of 200 uM G418 response) of 10 to 100 µM.

CNc1nc(NC2CCN3CCCC3C2)nc2nc(C)cc(C)c12 (single isomer, unassigned) [Example 442] showed an EC (100% of 200 uM G418 response) of 1 to 10 µM.

With Cc1cc(C)c2c(N)nc(NC3CCN(Cc4cccc5cn[nH]c45)CC3)nc2n1 [Example 659] the Emax was 100 to 3000% and the EC (100% of 200 uM G418 response) was 0.1 to 1 µM.

In the case of CNc1nc(NC2CCN3CCCC3C2)nc2nc(C)cc(C)c12 (single isomer, unassigned) [Example 443], the Emax is reported as 100 to 3000% and the pC100% (negative logarithm of the concentration giving the same response as 200 μM G418) is reported as “++ (pC100% > 5.0 ≤ 6.0)”.

Cc1cc(C)c2c(N)nc(NCC3CCN(C)C3)nc2n1 (stereo not drawn) [Example 170] gave an Emax of 100 to 3000% and an EC (100% of 200 uM G418 response) of 10 to 100 µM.

Work on CN1CCC(Nc2nc(N)c3ccc(-c4ccccc4C(=O)N(C)C)nc3n2)CC1 [Example 75] yielded an Emax of 0 to 100% and an EC (100% of 200 uM G418 response) of over 100 µM.

Compound CNc1nc(N[C@H]2CNC[C@@H]2OC)nc2nc3c(c(C)c12)CCC3 [Example 623] has an EC (100% of 200 uM G418 response) of 0.1 to 1 µM.

CNc1nc(N[C@H]2C[C@H](C)N(C)C2)nc2nc(C)cc(C)c12 [Example 373] gave an Emax of 100 to 3000% and an EC (100% of 200 uM G418 response) of 1 to 10 µM.

CCCN1CCC(Nc2nc(N)c3c(C)cc(C)nc3n2)CC1 [Example 221] was tested, and the EC (100% of 200 uM G418 response) was 1 to 10 µM.

For CN1CCC(Nc2nc(N)c3ccc(OC4CCC4)nc3n2)CC1 [Example 33, 7-cyclobutoxy-N^2-(1-methylpiperidin-4-yl)pyrido[2,3-d]pyrimidine-2,4-diamine], the Emax was 100 to 3000% and the EC (100% of 200 uM G418 response) was 10 to 100 µM.

For Cc1cc(C)c2c(N)nc(N[C@@H]3CCNC[C@H]3F)nc2n1 [Example 585], the Emax was 100 to 3000% and the EC (100% of 200 uM G418 response) was 1 to 10 µM.

In the case of CNc1c(C)c(NC2CCN(C)CC2)nc2nc(C)cc(C)c12 [Example 257, N^4,3,5,7-tetramethyl-N^2-(1-methylpiperidin-4-yl)-1,8-naphthyridine-2,4-diamine], the Emax is reported as 0 to 100% and the EC (100% of 200 uM G418 response) is reported as over 31.6 µM.

Compound [2H]C([2H])([2H])Nc1nc(N[C@H]2CNC[C@@H]2O)nc2nc3c(c(C)c12)CCC3 [Example 563] has an EC (100% of 200 uM G418 response) of 0.1 to 1 µM.

Work on CNCCCNc1nc(N)c2c(C)cc(C)nc2n1 [Example 280] yielded an EC (100% of 200 uM G418 response) of 1 to 10 µM.
